{"source": "paper PMC6522524", "about": "(Nature Communications, 2019)", "key": {"[1]": {"experiment": "in vitro", "conditions": "human, Cell viability(%), HepG2.2.15, 10 μM, 6 days"}, "[2]": {"test_system": "HepG2 cells transfected with pHBV1.2×", "conditions": "HBV 1.2x adr, 10 μM, 6 days, Sample1-3"}, "[3]": {"test_system": "HBV (ayw subtype, genotype D) replicon in HepG2.2.15 cells", "experiment": "microbe, parasite or virus in culture", "type": "cell-based, Hepatitis B virus", "conditions": "for activity at 10 µM: Hepatitis B virus, HepG2.2.15, 144 h, 6 days"}, "[4]": {"test_system": "HBV pgRNA/precore RNA in HepG2.2.15 cells", "type": "cell-based, Hepatitis B virus", "procedure": "Fig. 1 Effect of FDA-approved compounds on HBV replication. a Schematic depiction of the primary screening analysis. HepG2.2.15 cells, which were stably transfected with HBV replicons, were treated with 978 FDA-approved drugs (1 μM) for 3 days. Entecavir (ETV) (1 μM) served as positive control. […] Quantitative RT-PCR was performed after 6 days of incubation. d Effect of the 19 candidates on intracellular HBV capsid assembly. Huh-7 cells were transfected with pCDNA3-Core and exposed after 12 h to the 19 candidates (1 μM) for 36 h. The cells were lysed and assembled HBV core particles were isolated by sucrose step gradient ultracentrifugation, resolved on 1% agarose gels, and subjected to immunoblot analysis with anti-HBV core antibody.\n(§1) Quantitative RT-PCR with primers that detect three HBV regions (R1, R2, and R3, Supplementary Table 1) was used to measure HBV transcription. This RT-PCR detects pgRNA and precore RNA (3.5 kB), two HBV surface-encoding RNAs (2.5 kB and 2.1 kB), and HBx-encoding RNA (0.7 kB)[55]. PCR conditions were 95 °C for 10 min initially, then 50 cycles of 95 °C for 30 s, 60 °C for 60 s and 72 °C for 30 s, and finally 1 cycle of 95 °C for 60 s, 55 °C for 30 s and 95 °C for 30 s.\n(§2) a Schematic depiction of the R1, R2, and R3 regions of the HBV genome that were targeted by\n(§3) quantitative RT-PCR to quantitate the transcription of pgRNA, two HBV surface RNAs, and HBx RNA.\n(§4) pGL3/HBV pgRNA promoter or pGL3/HBV sRNA promoter. The data shown in (b – d) represent two"}, "[5]": {"experiment": "in vitro", "conditions": "human, Cell viability(%), HBV 1.2x adr, 10 μM, 6 days"}, "[6]": {"test_system": "HBV (pHBV1.2× adr) in transfected HepG2 cells", "experiment": "microbe, parasite or virus in culture", "type": "cell-based, Hepatitis B virus", "conditions": "10 μM, 6 days"}, "[7]": {"test_system": "HBV transcripts in HepG2 cells transfected with pHBV1.2×", "experiment": "HBV transcription in HepG2 cells transfected with pHBV1.2×, quantitative RT-PCR", "type": "cell-based, Hepatitis B virus", "conditions": "Suppl. fig. 12c, ETV, Control = 1", "procedure": "as §1, with “s. […]” for “s.”\na Schematic depiction of the R1, R2, and R3 regions of the HBV genome that were targeted by quantitative RT-PCR to quantitate the transcription of pgRNA, two HBV surface RNAs, and HBx RNA. […]\nc Region 3 transcription in ciclopirox-treated (b) HepG2.2.15 cells and (c) HepG2 cells transfected with the pHBV1.2× plasmid. d The promoter analysis of ciclopirox-treated HepG2 cells transfected with pGL3/HBV pgRNA promoter or pGL3/HBV sRNA promoter. The data shown in (b – d) represent two"}, "[8]": {"test_system": "HBsAg in HepG2.2.15 cells", "experiment": "Secreted HBsAg ELISA, HepG2.2.15 cells", "type": "cell-based, Hepatitis B virus", "conditions": "6 days", "procedure": "(§5) Secreted HBsAg (f, i respectively) was quantified by ELISA.\n(§6) An HBsAg ELISA kit (KA0286, Abnova) was used to quantify HBsAg protein. Briefly, culture media were incubated in individual wells of the capture plates for 2 h. After washing, horseradish peroxidase-labeled rabbit anti-HBV surface antibody was added, followed by incubation for an additional 2 h. The substrate solution was added for 15–60 min and absorbance at 450 nm was measured."}, "[9]": {"test_system": "HBV (pHBV1.2× adr) in transfected HepG2 cells", "experiment": "microbe, parasite or virus in culture", "type": "cell-based, Hepatitis B virus", "conditions": "10 μM, 6 days", "remark": "listed apart in the source"}, "[10]": {"test_system": "HBsAg in HepG2 cells transfected with pHBV1.2×", "experiment": "Secreted HBsAg ELISA, HepG2 cells transfected with pHBV1.2×", "type": "cell-based, Hepatitis B virus", "conditions": "10 μM, 6 days", "procedure": "as §5, §6"}, "[11]": {"test_system": "HBV pgRNA promoter, HBV sRNA promoter", "experiment": "Promoter analysis in HepG2 cells transfected with pGL3/HBV pgRNA promoter or pGL3/HBV sRNA promoter", "type": "cell-based, Hepatitis B virus", "conditions": "ETV", "from_the_text": "as §2, §3, §4"}}, "note": "Values joined by “and” are separate entries in the source; they are usually repeats but may differ in a detail not shown here. Identical values can stand only once. Like-named read-outs stand apart in the source and are kept apart here."}
{"smiles": "C=C1[C@H](CO)[C@@H](O)C[C@@H]1n1cnc2c(=O)[nH]c(N)nc21", "note": "[ETV, entecavir]", "values": [{"measurement": "viability at 10 µM", "setting": "[1]; AVERAGE", "value": 101, "unit": "%"}, {"measurement": "viability at 10 µM", "setting": "[1]; individual samples, Sample1-3", "value": 101, "unit": "%"}, {"measurement": "Cell viability(%), individual samples", "setting": "[2]", "value": "100.151% and 99.4005%"}, {"measurement": "HBV DNA particle secretion was reduced by", "setting": "[3]; 1 μM, 3 days' incubation", "value": "42.1 ± 14.1", "unit": "%"}, {"measurement": "activity at 10 µM", "setting": "[3]; HepG2.2.15 (figure 4d), 10 μM, read-out: Relative secreted HBV DNA level (Folds), AVERAGE", "value": 1.36, "unit": "%"}, {"measurement": "activity at 10 µM", "setting": "[3]; HepG2.2.15, 10 μM, read-out: Relative secreted HBV DNA level (Folds), individual samples", "value": 1.96, "unit": "%"}, {"measurement": "Relative HBV pgRNA/precore RNA level (Folds), AVERAGE", "setting": "[4]; Fig. 1c, 6 days", "value": 0.9573, "unit": "Folds"}, {"measurement": "Relative HBV transcript R1, Sample1-3", "setting": "[4]; Suppl. fig. 12b, R1, single samples, ETV, Control = 1", "value": "0.9164 and 1.011 and 1.015"}, {"measurement": "Relative HBV transcript R2, AVERAGE", "setting": "[4]; Suppl. fig. 12b, R2, ETV, Control = 1", "value": 1.028}, {"measurement": "Relative HBV transcript R3, AVERAGE", "setting": "[4]; Suppl. fig. 12b, R3, ETV, Control = 1", "value": 0.9829}, {"measurement": "Relative HBV transcript R3, Sample1-3", "setting": "[4]; Suppl. fig. 12b, R3, single samples, ETV, Control = 1", "value": "0.9794 and 0.8641 and 0.8947"}, {"measurement": "viability at 10 µM", "setting": "[5]; AVERAGE", "value": 99.6, "unit": "%"}, {"measurement": "viability at 10 µM", "setting": "[5]; individual samples, Sample1-3", "value": 99.3, "unit": "%"}, {"measurement": "Relative intracellular HBV DNA level (Folds), AVERAGE", "setting": "[6]; HBV 1.2x adr (figure 4h)", "value": 0.1393, "unit": "Folds"}, {"measurement": "Relative intracellular HBV DNA level (Folds), individual samples", "setting": "[6]; HBV 1.2x adr, Sample1-3", "value": "0.1084 Folds and 0.1053 Folds and 0.1147 Folds"}, {"measurement": "Relative HBV transcript R1, Sample1-3", "setting": "[7]; R1, single samples", "value": "0.9971 and 1.095 and 1.085"}, {"measurement": "Relative HBV transcript R2, AVERAGE", "setting": "[7]; R2", "value": 1.083}, {"measurement": "Relative HBV transcript R3, AVERAGE", "setting": "[7]; R3", "value": 0.953}, {"measurement": "Relative HBV transcript R3, Sample1-3", "setting": "[7]; R3, single samples", "value": "0.9903 and 0.9758 and 0.8935"}, {"measurement": "Relative secreted HBsAg (Folds), AVERAGE", "setting": "[8]; HepG2.2.15 (figure 4f), 10 μM", "value": 0.9837, "unit": "Folds"}, {"measurement": "Relative secreted HBsAg (Folds), individual samples", "setting": "[8]; HepG2.2.15, 10 μM, Sample1-2", "value": "0.9818 Folds and 0.9857 Folds"}, {"measurement": "Relative secreted HBV DNA level (Folds), AVERAGE", "setting": "[9]; HBV 1.2x adr (figure 4g)", "value": 0.03628, "unit": "Folds"}, {"measurement": "Relative secreted HBV DNA level (Folds), individual samples", "setting": "[9]; HBV 1.2x adr", "value": "0.356 Folds and 6.706e-5 Folds and 0.0005754 Folds"}, {"measurement": "Relative secreted HBsAg (Folds), AVERAGE", "setting": "[10]; HBV 1.2x adr (figure 4i)", "value": 0.996, "unit": "Folds"}, {"measurement": "Relative secreted HBsAg (Folds), individual samples", "setting": "[10]; HBV 1.2x adr, Sample1-2", "value": "1.007 Folds and 0.9855 Folds"}, {"measurement": "Relative pgRNA promoter activity, AVERAGE", "setting": "[11]; pgRNA promoter, Control = 1", "value": 1.039}, {"measurement": "Relative pgRNA promoter activity, Sample1-3", "setting": "[11]; pgRNA promoter, single samples", "value": "0.9019 and 1.084 and 1.13"}, {"measurement": "Relative sRNA promoter activity, AVERAGE", "setting": "[11]; sRNA promoter, Control = 1", "value": 1.037}, {"measurement": "Relative sRNA promoter activity, Sample1-3", "setting": "[11]; sRNA promoter, single samples", "value": "0.9017 and 1.283 and 0.9275"}]}
